Assay results reported in ChEMBL document CHEMBL4602735, “Discovery of (1H-Pyrazolo[3,4-c]pyridin-5-yl)sulfonamide Analogues as Hepatitis B Virus Capsid Assembly Modulators by Conformation Constraint” (J Med Chem, 2020).

Tests used:
[1] = Selectivity index, ratio of CC50 for cytotoxicity in human HepAD38 cells assessed as induction of cell killing to EC50 for antiviral activity against HBV infected in human HepAD38 cells assessed as reduction in viral DNA levels incubated for 6 days by PCR analysis; assay type: toxicity, cell-based; settings: read-out: Ratio CC50/EC50
Hepatitis B virus = assay: Antiviral activity against HBV infected in human HepAD38 cells assessed as reduction in viral DNA levels incubated for 6 days by PCR analysis; assay type: functional, organism-based; settings: HePAD38, 144 h
[2] = Cytotoxicity in human HepAD38 cells assessed as induction of cell killing; assay type: cell-based

| Compound | selectivity ratio at 144 h [1] | EC50 (Hepatitis B virus) | CC50 [2] |
| --- | --- | --- | --- |
| Cc1cc(Nc2nn(C3CC3)c3ccc(S(=O)(=O)N4CCC(O)CC4)cc23)ccn1 | < 23 | > 20 µM | 46.6 µM |
| O=S(=O)(c1ccc2c(c1)c(Nc1ccc(F)c(C(F)(F)F)c1)nn2C1CC1)N1CCC(O)CC1 | 1.3 | 6 µM | 7.52 µM |
| O=S(=O)(c1ccc2c(n1)c(Nc1cc(F)c(F)c(F)c1)nn2C1CC1)N1CCC(O)CC1 |  | > 5 µM |  |
| Cn1nc(Nc2ccc(F)c(Cl)c2)c2cc(S(=O)(=O)N3CCC(O)CC3)ccc21 | > 72 | 1.38 µM | > 100 µM |
| O=S(=O)(c1ccc2c(c1)c(Nc1ccc(F)cc1Cl)nn2C1CC1)N1CCC(O)CC1 | > 25 | 4 µM | > 100 µM |
| Cc1ccc(Nc2nn(C3CC3)c3ccc(S(=O)(=O)N4CCC(O)CC4)cc23)cc1 |  | 0.22 to 5 µM |  |
| O=S(=O)(c1ccc2c(c1)c(NCc1ccccc1)nn2C1CC1)N1CCC(O)CC1 |  | > 10 µM |  |
| O=S(=O)(c1cc2c(Nc3cc(F)c(F)c(F)c3)nn(C3CC3)c2cn1)N1CCC(O)CC1 | > 417 | 0.24 µM | > 100 µM |
| CCn1nc(Nc2ccc(F)cc2)c2cc(S(=O)(=O)N3CCC(O)CC3)ccc21 | > 79 | 1.26 µM | > 100 µM |
| O=S(=O)(c1ccc2c(c1)c(NC1CCCC1)nn2C1CC1)N1CCC(O)CC1 |  | > 10 µM | > 100 µM |
| O=S(=O)(c1ccc2c(c1)c(Nc1ccc(F)cc1)nn2C1CCC1)N1CCC(O)CC1 | 1.3 | 8 µM | 10.8 µM |
| Cc1cc(Nc2nn(CC(F)F)c3ccc(S(=O)(=O)N4CCOCC4)cc23)ccc1F | > 435 | 0.23 µM | > 100 µM |
| CN(c1ccc(F)c(Cl)c1)c1nn(C2CC2)c2ccc(S(=O)(=O)N3CCC(O)CC3)cc12 |  | > 10 µM | > 100 µM |
| O=S(=O)(c1cc2c(Nc3cc(F)c(F)c(F)c3)nn(C3CC3)c2cc1F)N1CCC(O)CC1 | > 769 | 0.13 µM | > 100 µM |
| O=S(=O)(c1cc2c(Nc3ccc(F)c(C(F)(F)F)c3)nn(C3CC3)c2cn1)N1CCOCC1 | > 294 | 0.34 µM | > 100 µM |
| O=S(=O)(c1ccc2c(c1)c(Nc1ccc(F)cc1)nn2C1CC1)N1CCC(O)C1 (stereo not drawn) | 28 | 2.1 µM | 60 µM |
| O=S(=O)(c1cnc2c(c1)c(Nc1cc(F)c(F)c(F)c1)nn2C1CC1)N1CCC(O)CC1 |  | > 20 µM |  |
| Cc1cc(Nc2nn(C3CC3)c3cc(F)c(S(=O)(=O)N4CCOCC4)cc23)ccc1F |  | 0.21 µM | > 100 µM |
| O=S(=O)(c1ccc2c(c1)c(Nc1ccc(F)cc1)nn2C1COC1)N1CCC(O)CC1 |  | > 10 µM |  |
| O=S(=O)(c1ccc2c(c1)c(Nc1ccc(F)cc1)nn2C1CC1)N1CCC(CO)CC1 | 23 | 1.1 µM | 24.8 µM |
| O=S(=O)(c1ccc2c(c1)c(Nc1ccc(F)cc1)nn2C1CC1)N1CCC(O)CC1 | > 455 | 0.22 µM | > 100 µM |
| O=C1CCN(S(=O)(=O)c2ccc3c(c2)c(Nc2ccc(F)cc2)nn3C2CC2)CC1 | 43 | 0.33 µM | 14.2 µM |
| O=S(=O)(c1ccc2c(c1)c(Oc1ccc(F)c(Cl)c1)nn2C1CC1)N1CCC(O)CC1 | < 7.5 | > 10 µM | 75 µM |
| O=S(=O)(c1ccc2c(c1)c(Nc1ccc(F)cc1)nn2C1CC1)N1CCOCC1 | > 232 | 0.43 µM | > 100 µM |

| Compound | selectivity ratio at 144 h [1] | EC50 (Hepatitis B virus) | CC50 [2] |
| --- | --- | --- | --- |
| O=S(=O)(c1ccc2c(c1)c(NCc1ccc(F)cc1)nn2C1CC1)N1CCC(O)CC1 |  | > 10 µM |  |
| O=S(=O)(c1ccc2c(c1)c(Nc1ccc(F)c(C(F)(F)F)c1)nn2C1CC1)N1CCOCC1 | 29 | 0.29 µM | 8.42 µM |
| Cc1cc(Nc2n[nH]c3ccc(S(=O)(=O)N4CCOCC4)cc23)ccc1F | 172 | 0.29 µM | 50 µM |
| Cc1cc(F)ccc1Nc1nn(C2CC2)c2ccc(S(=O)(=O)N3CCC(O)CC3)cc12 | > 87 | 1.15 µM | > 100 µM |
| Cc1cc(Nc2nn(C3CC3)c3ccc(S(=O)(=O)N4CCC(O)CC4)cc23)ccc1F | 343 | 0.032 µM | 11 µM |
| Cc1cc(Nc2nn(CC(F)(F)F)c3ccc(S(=O)(=O)N4CCOCC4)cc23)ccc1F | > 417 | 0.24 µM | > 100 µM |
| O=S(=O)(c1ccc2c(c1)c(Nc1ccc(Cl)cc1)nn2C1CC1)N1CCC(O)CC1 | 2.2 | 3.14 µM | 6.9 µM |
| Cc1cc(Nc2nn(C3CC3)c3ccc(S(=O)(=O)N4C[C@@H]5C[C@H]4CO5)cc23)ccc1F | 422 | 0.045 µM | 19 µM |
| O=S(=O)(c1ccc2c(c1)c(Nc1ccc(F)cc1)nn2C1CC1)N1CCC2(CC1)OCCO2 | > 400 | 0.25 µM | > 100 µM |
| O=S(=O)(c1ccc2c(c1)c(Nc1ccc(F)c(F)c1)nn2C1CC1)N1CCOCC1 | > 454 | 0.22 µM | > 100 µM |
| O=S(=O)(c1ccc2c(c1)c(Nc1ccccc1)nn2C1CC1)N1CCC(O)CC1 | 44 | 0.74 µM | 32.2 µM |
| CC(C)n1nc(Nc2ccc(F)cc2)c2cc(S(=O)(=O)N3CCC(O)CC3)ccc21 |  | > 10 µM |  |
| O=S(=O)(c1cc(F)c2c(c1)c(Nc1cc(F)c(F)c(F)c1)nn2C1CC1)N1CCC(O)CC1 | > 50 | 2 µM | > 100 µM |
| Cc1cc(Nc2nn(C(F)F)c3ccc(S(=O)(=O)N4CCOCC4)cc23)ccc1F |  | > 10 µM | > 100 µM |
| O=S(=O)(c1cc2c(Nc3ccc(F)c(C(F)F)c3)nn(C3CC3)c2cn1)N1CCOCC1 | > 435 | 0.23 µM | > 100 µM |
| O=S(=O)(c1ccc2c(c1)c(NC1CCCCC1)nn2C1CC1)N1CCC(O)CC1 | < 10 | > 10 µM | 100 µM |
| N#Cc1cc(Nc2nn(C3CC3)c3ccc(S(=O)(=O)N4CCC(O)CC4)cc23)ccc1F |  | > 10 µM |  |
| O=S(=O)(c1ccc2[nH]nc(Nc3ccc(F)c(Cl)c3)c2c1)N1CCC(O)CC1 | 18.8 | 1.28 µM | 24 µM |
| O=S(=O)(c1ccc2c(c1)c(Nc1ccc(F)c(C(F)F)c1)nn2C1CC1)N1CCC(O)CC1 | 47 | 0.29 µM | 13.6 µM |
| O=S(=O)(c1ccc2c(c1)c(Nc1ccc(F)cn1)nn2C1CC1)N1CCC(O)CC1 |  | > 10 µM |  |
| O=S(=O)(c1ccc2c(c1)c(Nc1ccc(F)c(Cl)c1)nn2C1CC1)N1CCC(O)CC1 | 96 | 0.19 µM | 18.3 µM |
| Cc1cc(Nc2nn(C3CC3)c3ccc(S(=O)(=O)N4CCC(O)CC4)cc23)ncc1F |  | > 10 µM |  |
| O=S(=O)(c1ccc2c(c(Nc3cc(F)c(F)c(F)c3)nn2C2CC2)c1F)N1CCC(O)CC1 |  | > 20 µM | > 100 µM |
| O=C(O)C1CCN(S(=O)(=O)c2ccc3c(c2)c(Nc2ccc(F)cc2)nn3C2CC2)C1 (stereo not drawn) |  | > 10 µM | > 100 µM |
